Columns and labels:
[1] = target: T1, Amine oxidase [flavin-containing] A (Homo sapiens, UniProt P21397); assay: Inhibiton Assay
T1 sequence (P21397 whole entry): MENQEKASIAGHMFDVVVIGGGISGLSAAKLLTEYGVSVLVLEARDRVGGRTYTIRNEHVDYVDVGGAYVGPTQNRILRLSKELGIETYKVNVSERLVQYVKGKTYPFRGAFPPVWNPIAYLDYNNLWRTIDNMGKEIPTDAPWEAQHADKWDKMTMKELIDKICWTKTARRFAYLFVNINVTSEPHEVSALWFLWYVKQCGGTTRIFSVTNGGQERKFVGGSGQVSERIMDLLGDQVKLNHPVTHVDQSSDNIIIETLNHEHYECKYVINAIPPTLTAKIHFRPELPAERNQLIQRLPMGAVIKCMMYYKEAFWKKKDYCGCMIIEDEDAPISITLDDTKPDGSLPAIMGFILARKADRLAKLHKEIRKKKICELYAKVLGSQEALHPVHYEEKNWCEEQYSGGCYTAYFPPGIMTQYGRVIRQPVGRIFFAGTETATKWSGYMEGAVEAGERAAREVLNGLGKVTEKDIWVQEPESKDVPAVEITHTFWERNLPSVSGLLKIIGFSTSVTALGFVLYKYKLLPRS
Text: (§1) Inhibition assay using MAO-A and MAO-B.

[2] = target: T2, Amine oxidase [flavin-containing] B (Homo sapiens, UniProt P27338); assay: Inhibiton Assay
T2 sequence (P27338 whole entry): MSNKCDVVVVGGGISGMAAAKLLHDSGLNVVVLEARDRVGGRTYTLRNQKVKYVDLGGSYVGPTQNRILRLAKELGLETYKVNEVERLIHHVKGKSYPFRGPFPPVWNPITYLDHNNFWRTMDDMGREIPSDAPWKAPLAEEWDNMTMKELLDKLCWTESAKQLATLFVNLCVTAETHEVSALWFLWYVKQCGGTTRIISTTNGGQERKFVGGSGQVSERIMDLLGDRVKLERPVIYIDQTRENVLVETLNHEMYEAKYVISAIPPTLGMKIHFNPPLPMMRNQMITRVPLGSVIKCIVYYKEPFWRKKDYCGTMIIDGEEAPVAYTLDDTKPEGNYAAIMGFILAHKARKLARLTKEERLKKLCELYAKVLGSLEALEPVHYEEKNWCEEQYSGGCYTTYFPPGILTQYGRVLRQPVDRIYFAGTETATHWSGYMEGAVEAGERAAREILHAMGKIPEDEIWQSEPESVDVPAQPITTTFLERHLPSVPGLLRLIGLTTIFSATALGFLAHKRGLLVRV
Text: as §1

SMILES | Ki [1] | IC50 [2]
C[n+]1ccc(Cc2ccccc2F)cc1 [MPP analogue, 18] | 29 µM | 2000 µM
C[n+]1ccc(Cc2cccc3ccccc23)cc1 [MPP analogue, 19] | 5.5 µM | 850 µM
C[n+]1ccc(CCc2ccccc2)cc1 [MPP analogue, 17] | 37 µM | 12 µM

— BindingDB's records for doi:10.1021/bi00139a026 (University of California San Francisco, 1992)
